We go through two compounds from US12612622B2, “Targeted mutagenesis using base editors” (Qi Biodesign Biotechnology Company Limited, priority 2018, dated 2026).

Read-outs that look alike come from different tables or passages of the source.

The test system of experiment [1] is OsACC. In words: Saturated de novo mutagenesis of OsACC CT domain in rice protoplasts, 20 sgRNAs. Type of experiment: cell-based. An excerpt: To test the ability of STEME to achieve saturated de novo mutagenesis in rice protoplasts, it has been taken acetyl-coenzyme A carboxylase (OsACC) as an example. ACC is a key enzyme in lipid biosynthesis and its carboxyltransferase (CT) domain is the target of herbicides (FIG. 5 b). Amino acid substitutions in the CT domain can confer herbicides resistance on grass. 20 sgRNAs has been designed, including 11 sgRNAs with forward direction NGD-3′ PAMs and 9 with reverse complement 5′-HCN (H=A, T or C) PAMs spanning a 168 bp DNA sequence that encodes 56 amino acids of the CT domain (FIG. 5b). Using STEME-NG, the sgRNAs covered 90.32% of the cytosines, 40.43% of the adenines, 77.78% of the guanines, and 38.89% of the thymines in the editing windows, corresponding in all to 61.31% of the bases of the coding strand. These sgRNAs has been co-transfected individually together with STEME-NG into rice protoplasts. A3A-PBE-NG and pCas9-NG served as controls. […] No base conversions were detected in the untreated control.
We also analyzed the amino acid substitutions generated by STEME-NG in the targeted 56 amino acids. […] Of these, twenty-four, twelve, and five amino acids had one, two, and three kinds of amino acids substitution, respectively. […] Similarly, A3A-PBE-NG mutated 33 amino acids, of which twenty-six, six, and one contained one, two, and three kinds of amino acids substitution, respectively. […] Thus, it promises to be a powerful tool for directed evolution of endogenous genes by saturated de novo mutagenesis in situ.
We used the Japonica rice variety Nipponbare to prepare protoplasts. Protoplast isolation and transformation were performed as described (Shan, Q. et al. Rapid and efficient gene modification in rice and Brachypodium using TALENs. Mol. Plant 6, 1365-1368 (2013).). 10 μg each of nuclease and sgRNA plasmid DNA were introduced into the protoplasts by PEG-mediated transfection, with a mean transformation efficiency of 40-55% as measured by hemocytometer. The transfected protoplasts were incubated at 23° C. and 60 h post-transfection they were collected and genomic DNA extracted for amplicon deep sequencing.
DNA extraction. The genomic DNA of protoplasts was extracted with a DNA-Quick Plant System (Tiangen Biotech, Beijing, China). Genomic DNA of regenerated rice seedlings was extracted with CTAB, and all the seedlings in each group were sampled together. The targeted site was amplified with specific primers, and the amplicons were purified with an EasyPure PCR Purification Kit (TransGen Biotech, Beijing, China), and quantified with a NanoDrop™ 2000 Spectrophotometer (Thermo Fisher Scientific, Waltham, MA, USA).

For experiment [2], the system named is rice seedlings with OsACC mutations. An excerpt: The herbicide was applied with pressurized equipment at 0.2 MPa and a spray volume of 450 L/ha. Three weeks later, surviving seedlings were identified.

As for “A3A-PBE-NG: A3A-PBE with nCas9-NG (D10A); protein SEQ ID NO: 186”, in experiment [1], the “amino acids with one kind of amino acid substitution” value is “twenty-six”, the “amino acids with three kinds of amino acid substitution” value was “one” and the “amino acids with two kinds of amino acid substitution” value is recorded as “six”. In experiment [1] (coding strand), the “A>G or T>C substitutions” value was “no A>G or T>C substitutions were found”, the “Cs converted to Ts in the covered bases” value is reported as 89.29% and the “Gs converted to As in the covered bases” value worked out at 92.86%. The same compound showed an amino acids substituted in experiment [1] (of the targeted 56 amino acids, silent, missense, nonsense) of 33. Also, the indels in experiment [1] (rice protoplasts, 20 sgRNAs) was < 0.01%.

Take `CC(Oc1ccc(Oc2ncc(C(F)(F)F)cc2Cl)cc1)C(=O)O` (stereo not drawn) [haloxyfop]: the “herbicide resistance of seedlings” value in experiment [2] (Group 2 seedlings, S1866F heterozygotes) was “slightly weaker haloxyfop resistance”; in experiment [2] (Group 3 seedlings, A1884P heterozygotes), “slightly weaker haloxyfop resistance”; in experiment [2] (Group 6 seedlings carrying P1927F, spray 34 g active ingredient ha-1, three weeks) it was “clearly herbicide resistant”; in experiment [2] (Group 20 seedlings carrying W2125C, spray 34 g active ingredient ha-1, three weeks) it was “clearly herbicide resistant”.
